Results on 3 compounds are retold here after PMC4770772 (Oncotarget, 2015).

For series [1], the target named is T1, ABCG2 (Homo sapiens, UniProt Q9UNQ0).
T1 construct: membrane vesicles of High Five insect cells overexpressing ABCG2
T1 sequence (Q9UNQ0 1-655): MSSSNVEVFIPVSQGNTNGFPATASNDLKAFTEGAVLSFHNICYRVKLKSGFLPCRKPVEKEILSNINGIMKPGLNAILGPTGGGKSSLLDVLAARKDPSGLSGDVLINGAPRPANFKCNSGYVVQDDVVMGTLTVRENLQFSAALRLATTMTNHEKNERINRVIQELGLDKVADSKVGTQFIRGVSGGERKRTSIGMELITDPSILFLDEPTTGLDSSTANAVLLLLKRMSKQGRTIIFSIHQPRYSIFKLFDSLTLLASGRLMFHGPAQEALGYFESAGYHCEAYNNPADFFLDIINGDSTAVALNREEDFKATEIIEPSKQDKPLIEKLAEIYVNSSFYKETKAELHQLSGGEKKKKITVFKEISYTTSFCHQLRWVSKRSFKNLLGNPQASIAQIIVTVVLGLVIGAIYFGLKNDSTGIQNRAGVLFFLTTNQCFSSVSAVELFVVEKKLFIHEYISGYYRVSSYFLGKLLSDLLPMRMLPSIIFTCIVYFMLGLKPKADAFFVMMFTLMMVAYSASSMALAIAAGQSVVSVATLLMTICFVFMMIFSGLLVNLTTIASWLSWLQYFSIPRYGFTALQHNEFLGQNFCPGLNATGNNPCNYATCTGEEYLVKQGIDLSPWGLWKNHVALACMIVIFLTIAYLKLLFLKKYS
It is filed as biochemical. Particulars: membrane vesicles.

The target of series [2] is T1, ABCG2. Put plainly: vanadate-sensitive ATPase stimulation in membrane vesicles; [3H]-MX efflux from ABCG2-transfected cells. It is filed as biochemical.
Series [3] concerns the target T2, ABCG2 (Homo sapiens, UniProt Q9UNQ0, R482T).
T2 construct: full-length ABCG2 in HEK293 cells
T2 sequence (Q9UNQ0 1-655 R482T): T1 sequence (Q9UNQ0 1-655) with R482T
Put plainly: [3H]-mitoxantrone accumulation in HEK293/R482T cells at […]. It is filed as cell-based.

Series [4] deals with T3, ABCG2 (Homo sapiens, UniProt Q9UNQ0, R482G).
T3 construct: full-length ABCG2 in HEK293 cells
T3 sequence (Q9UNQ0 1-655 R482G): T1 sequence (Q9UNQ0 1-655) with R482G
Put plainly: [3H]-mitoxantrone accumulation in HEK293/R482G cells at […]. In kind it is cell-based.

Series [5] deals with T1, ABCG2. Put plainly: vanadate-sensitive ATPase stimulation in membrane vesicles; also [3H]-mitoxantrone accumulation/efflux inhibition in HEK293/R482 cells. In kind it is biochemical.

Substitutions are numbered along the chain they refer to. Like-named read-outs stand apart in the source and are kept apart here.

By EC50 is commonly meant the midpoint of the concentration-response curve. Take `CC[C@@]1(O)C(=O)OCc2c1cc1n(c2=O)Cc2cc3c(CN(C)C)c(O)ccc3nc2-1` [topotecan]: the EC50 at ABCG2 [1] was determined as 2600 nM.

At ABCG2 [2], `O=C1c2c(O)ccc(O)c2C(=O)c2c(NCCNCCO)ccc(NCCNCCO)c21` [mitoxantrone] gave an EC50 of 2200 nM.

As to `COc1cc(NC(=O)c2ccc(-c3ccc(Cl)cc3)o2)cc(OC)c1` [A-803467], the “[3H]-mitoxantrone accumulation in HEK293/R482T cells at 7.5 μM” value on ABCG2 [3] was “significantly increased intracellular accumulation of [^3H]-MX in ABCG2-expressing cells HEK293/R482, HEK293/R482G and HEK293/R482T cells”. Also, at ABCG2 [4], the “[3H]-mitoxantrone accumulation in HEK293/R482G cells at 7.5 μM” value is “significantly increased intracellular accumulation of [^3H]-MX in ABCG2-expressing cells HEK293/R482, HEK293/R482G and HEK293/R482T cells”. In addition, a half-maximal effect at ABCG2 [5] (EC50) was put at 718 nM.
